{"source": "ChEMBL document CHEMBL1151804", "about": "“Antisense-guided isolation and structure elucidation of pannomycin, a substituted cis-decalin from Geomyces pannorum” (2009)", "key": {"Staphylococcus aureus [1]": {"test_system": "Staphylococcus aureus", "assay": "Antibacterial activity against methicillin-resistant Staphylococcus aureus after 20 hrs", "assay_type": "functional"}, "Escherichia coli": {"test_system": "Escherichia coli", "assay": "Antibacterial activity against Escherichia coli up to 1.4 mM after 20 hrs", "assay_type": "functional, organism-based"}, "Candida albicans": {"test_system": "Candida albicans", "assay": "Antifungal activity against Candida albicans up to 1.4 mM after 24 hrs", "assay_type": "functional, organism-based"}, "Streptococcus pneumoniae": {"test_system": "Streptococcus pneumoniae", "assay": "Antibacterial activity against Streptococcus pneumoniae up to 1.4 mM after 20 hrs", "assay_type": "functional, organism-based"}, "Bacillus subtilis": {"test_system": "Bacillus subtilis", "assay": "Antibacterial activity against Bacillus subtilis after 20 hrs", "assay_type": "functional"}, "Haemophilus influenzae": {"test_system": "Haemophilus influenzae", "assay": "Antibacterial activity against Haemophilus influenzae up to 1.4 mM after 20 hrs", "assay_type": "functional, organism-based"}, "Enterococcus faecalis": {"test_system": "Enterococcus faecalis", "assay": "Antibacterial activity against Enterococcus faecalis after 20 hrs", "assay_type": "functional"}, "Staphylococcus aureus [2]": {"test_system": "Staphylococcus aureus", "assay": "Antibacterial activity against Staphylococcus aureus Smith after 20 hrs", "assay_type": "functional"}}, "note": "Calls of active or inactive are those of the source. No cut-off for these calls is given here."}
{"smiles": "C/C=C/[C@@H]1C=C[C@@H]2C[C@@H](C)CC[C@@H]2[C@]1(C)C(=O)C1=C(O)C(C(C)O)N(C)C1=O", "note": "(some centres undefined) [CISSETIN]", "values": [{"measurement": "MIC", "setting": "Staphylococcus aureus [1]", "result": 10, "unit": "µM"}]}
{"smiles": "C/C=C/[C@H]1C(C)=C[C@H]2C[C@H](C)[C@H](O)C[C@H]2[C@]1(C)/C=C(C)/C=C/C(=O)O", "note": "[PANNOMYCIN]", "values": [{"measurement": "Activity", "setting": "Escherichia coli", "result": "inactive"}, {"measurement": "Activity", "setting": "Candida albicans", "result": "inactive"}, {"measurement": "Activity", "setting": "Streptococcus pneumoniae", "result": "inactive"}, {"measurement": "MIC", "setting": "Bacillus subtilis", "result": 400, "unit": "µM"}, {"measurement": "Activity", "setting": "Haemophilus influenzae", "result": "inactive"}, {"measurement": "MIC", "setting": "Enterococcus faecalis", "result": 1400, "unit": "µM"}, {"measurement": "MIC", "setting": "Staphylococcus aureus [2]", "result": 1400, "unit": "µM"}]}
{"smiles": "C/C=C/[C@@H]1C(C)=C[C@@H]2CC[C@@H](C)C[C@@H]2[C@]1(C)C(=O)C1=C(O)C(CO)N(C)C1=O", "note": "(some centres undefined)", "values": [{"measurement": "MIC", "setting": "Staphylococcus aureus [1]", "result": 12, "unit": "µM"}]}
